Patent US6737383B1, “Herbicidal oxadiazolidines” (priority 1999, dated 2004)

Assays:
[1] = system: sugar beet; experiment: Test B pre/postemergence sugar beet; assay type: in vivo, Beta vulgaris
Method in brief: (§1)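 Response is a visual 0-to-10 score relative to untreated plants, where 0 means no effect and 10 means complete control, taken twelve to sixteen days after application. Treatments went onto soil at planting and onto foliage of 1- to 4-leaf plants, using a surfactant-containing non-phytotoxic solvent.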

[2] = system: blackgrass; experiment: Test B pre/postemergence blackgrass; assay type: in vivo, Alopecurus myosuroides
Method in brief: as §1

[3] = system: velvetleaf; experiment: Test B pre/postemergence velvetleaf; assay type: in vivo, Abutilon theophrasti
Method in brief: as §1

[4] = system: pigweed; experiment: Test B pre/postemergence pigweed; assay type: in vivo, Amaranthus retroflexus
Method in brief: as §1

[5] = system: morningglory; experiment: Test B pre/postemergence morningglory; assay type: in vivo, Ipomoea hederacea
Method in brief: as §1

[6] = system: cocklebur; experiment: Test B pre/postemergence cocklebur; assay type: in vivo, Xanthium strumarium
Method in brief: as §1

[7] = system: corn; experiment: Test B pre/postemergence corn; assay type: in vivo, Zea mays
Method in brief: as §1

[8] = system: purple nutsedge; experiment: Test B pre/postemergence purple nutsedge; assay type: in vivo, Cyperus rotundus
Method in brief: as §1

[9] = system: surinam grass; experiment: Test B pre/postemergence surinam grass; assay type: in vivo, Brachiaria decumbens
Method in brief: as §1

[10] = system: crabgrass; experiment: Test B pre/postemergence crabgrass; assay type: in vivo, Digitaria sanguinalis
Method in brief: as §1

[11] = system: bedstraw; experiment: Test B pre/postemergence bedstraw; assay type: in vivo, Galium aparine
Method in brief: as §1

[12] = system: wheat; experiment: Test B pre/postemergence wheat; assay type: in vivo, Triticum aestivum
Method in brief: as §1

[13] = system: giant foxtail; experiment: Test B pre/postemergence giant foxtail; assay type: in vivo, Setaria faberii
Method in brief: as §1

[14] = system: soybean; experiment: Test B pre/postemergence soybean; assay type: in vivo, Glycine max
Method in brief: as §1

[15] = system: wild oat; experiment: Test B pre/postemergence wild oat; assay type: in vivo, Avena fatua
Method in brief: as §1

[16] = system: rape; experiment: Test B pre/postemergence rape; assay type: in vivo, Brassica napus
Method in brief: as §1

[17] = Preemergence, Rate 62 g/ha, scale of 0 to 10 where 0 is no effect and 10 is complete control
[18] = Preemergence, Rate 250 g/ha, scale of 0 to 10 where 0 is no effect and 10 is complete control
[19] = Preemergence, Rate 500 g/ha, scale of 0 to 10 where 0 is no effect and 10 is complete control
[20] = Rate 62 g/ha, Postemergence, scale 0 to 10, 0 no effect, 10 complete control
[21] = Rate 125 g/ha, Postemergence, scale of 0 to 10 where 0 is no effect and 10 is complete control
[22] = Rate 125 g/ha, Preemergence, scale of 0 to 10 where 0 is no effect and 10 is complete control
[23] = Rate 250 g/ha, Postemergence, scale of 0 to 10 where 0 is no effect and 10 is complete control
[24] = Rate 500 g/ha, Postemergence, scale 0 to 10, 0 no effect, 10 complete control

CC(=O)OCn1c(=O)on(C(=O)N(c2ccc(F)cc2)C(C)C)c1=O [Compound 292]
Sugarbeets plant response rating [1, 17]: 0 | Sugarbeets plant response rating [1, 18]: 0 | Plant response rating, Sugarbeets [1, 19]: 0 | Sugarbeets plant response rating [1, 20]: 0 | Sugarbeets plant response rating [1, 21]: 0 | Sugarbeets plant response rating [1, 22]: 0 | Plant response rating, Sugarbeets [1, 23]: 0 | Blackgrass plant response rating [2, 17]: 0 | Blackgrass plant response rating [2, 18]: 0 | Plant response rating, Blackgrass [2, 19]: 0 | Blackgrass plant response rating [2, 20]: 0 | Blackgrass plant response rating [2, 21]: 0 | Blackgrass plant response rating [2, 22]: 0 | Plant response rating, Blackgrass [2, 23]: 0 | Blackgrass plant response rating [2, 24]: 0 | Velvetleaf plant response rating [3, 17]: 0 | Velvetleaf plant response rating [3, 18]: 0 | Plant response rating, Velvetleaf [3, 19]: 0 | Velvetleaf plant response rating [3, 20]: 0 | Velvetleaf plant response rating [3, 21]: 0 | Velvetleaf plant response rating [3, 22]: 0 | Plant response rating, Velvetleaf [3, 23]: 0 | Redroot pigweed plant response rating [4, 17]: 0 | Redroot pigweed plant response rating [4, 18]: 0 | Plant response rating, Redroot pigweed [4, 19]: 0 | Redroot pigweed plant response rating [4, 20]: 0 | Redroot pigweed plant response rating [4, 21]: 0 | Redroot pigweed plant response rating [4, 22]: 0 | Plant response rating, Redroot pigweed [4, 23]: 0 | Morningglory plant response rating [5, 17]: 0 | Morningglory plant response rating [5, 18]: 0 | Plant response rating, Morningglory [5, 19]: 0 | Morningglory plant response rating [5, 20]: 0 | Morningglory plant response rating [5, 21]: 1 | Morningglory plant response rating [5, 22]: 0 | Plant response rating, Morningglory [5, 23]: 2 | Cocklebur plant response rating [6, 17]: 0 | Cocklebur plant response rating [6, 18]: 0 | Plant response rating, Cocklebur [6, 19]: 0 | Cocklebur plant response rating [6, 20]: 0 | Cocklebur plant response rating [6, 21]: 0 | Cocklebur plant response rating [6, 22]: 0 | Plant response rating, Cocklebur [6, 23]: 0 | Cocklebur plant response rating [6, 24]: 0 | Corn plant response rating [7, 17]: 0 | Corn plant response rating [7, 18]: 0 | Plant response rating, Corn [7, 19]: 0 | Corn plant response rating [7, 20]: 0 | Corn plant response rating [7, 21]: 0 | Corn plant response rating [7, 22]: 0 | Plant response rating, Corn [7, 23]: 0 | Corn plant response rating [7, 24]: 0 | Nutsedge plant response rating [8, 17]: 0 | Nutsedge plant response rating [8, 18]: 0 | Plant response rating, Nutsedge [8, 19]: 0 | Nutsedge plant response rating [8, 20]: 0 | Nutsedge plant response rating [8, 21]: 0 | Nutsedge plant response rating [8, 22]: 0 | Plant response rating, Nutsedge [8, 23]: 0 | B. signalgrass plant response rating [9, 17]: 0 | B. signalgrass plant response rating [9, 18]: 0 | Plant response rating, B. signalgrass [9, 19]: 0 | B. signalgrass plant response rating [9, 20]: 0 | B. signalgrass plant response rating [9, 21]: 0 | B. signalgrass plant response rating [9, 22]: 0 | Plant response rating, B. signalgrass [9, 23]: 0 | B. signalgrass plant response rating [9, 24]: 0 | Crabgrass plant response rating [10, 17]: 0 | Crabgrass plant response rating [10, 18]: 0 | Plant response rating, Crabgrass [10, 19]: 0 | Crabgrass plant response rating [10, 20]: 0 | Crabgrass plant response rating [10, 21]: 0 | Crabgrass plant response rating [10, 22]: 0 | Plant response rating, Crabgrass [10, 23]: 0 | Bedstraw plant response rating [11, 17]: 0 | Bedstraw plant response rating [11, 18]: 0 | Plant response rating, Bedstraw [11, 19]: 0 | Bedstraw plant response rating [11, 20]: 0 | Bedstraw plant response rating [11, 21]: 0 | Bedstraw plant response rating [11, 22]: 0 | Plant response rating, Bedstraw [11, 23]: 0 | Bedstraw plant response rating [11, 24]: 0 | Wheat plant response rating [12, 17]: 0 | Wheat plant response rating [12, 18]: 0 | Plant response rating, Wheat [12, 19]: 0 | Wheat plant response rating [12, 20]: 0 | Wheat plant response rating [12, 21]: 0 | Wheat plant response rating [12, 22]: 0 | Plant response rating, Wheat [12, 23]: 0 | Giant foxtail plant response rating [13, 17]: 0 | Giant foxtail plant response rating [13, 18]: 0 | Plant response rating, Giant foxtail [13, 19]: 0 | Giant foxtail plant response rating [13, 20]: 0 | Giant foxtail plant response rating [13, 21]: 0 | Giant foxtail plant response rating [13, 22]: 0 | Plant response rating, Giant foxtail [13, 23]: 0 | Soybean plant response rating [14, 17]: 0 | Soybean plant response rating [14, 18]: 0 | Plant response rating, Soybean [14, 19]: 0 | Soybean plant response rating [14, 20]: 0 | Soybean plant response rating [14, 21]: 0 | Soybean plant response rating [14, 22]: 0 | Plant response rating, Soybean [14, 23]: 1 | Wild oats plant response rating [15, 17]: 0 | Wild oats plant response rating [15, 18]: 0 | Plant response rating, Wild oats [15, 19]: 0 | Wild oats plant response rating [15, 20]: 0 | Wild oats plant response rating [15, 21]: 0 | Plant response rating, Wild oats [15, 23]: 0 | Rape plant response rating [16, 17]: 0 | Rape plant response rating [16, 18]: 0 | Plant response rating, Rape [16, 19]: 0 | Rape plant response rating [16, 20]: 0 | Rape plant response rating [16, 21]: 0 | Rape plant response rating [16, 22]: 0 | Plant response rating, Rape [16, 23]: 0
